Data published in patent EP4768499A1, “MACROCYCLIC PEPTIDE COMPOUND HAVING CELL MEMBRANE PERMEABILITY AND METABOLIC STABILITY, AND LIBRARY CONTAINING SAME” (Chugai Seiyaku Kabushiki Kaisha, priority 2023, dated 2025).
Like-named read-outs stand apart in the source and are kept apart here. Starred links: 1 amine or outer side, 2 acyl side, 3 side chain; linkers in the order of their positions; H or OH if unused. Non-standard residues stand in square brackets, D forms with d. Residues, ends and D or L forms follow the SMILES beside them. *: point of attachment. NMedβ3hAla = C[C@H](CC(=O)[*:2])N(C)[*:1]; NMeF = CN[C@@H](Cc1ccccc1)C(=O)O; NMeGABA = CN(CCCC(=O)[*:2])[*:1]; NMeI = CC[C@H](C)[C@H](NC)C(=O)O; NMeT = CN[C@H](C(=O)O)[C@@H](C)O; hPhe = N[C@@H](CCc1ccccc1)C(=O)O; NMeβAla = CN(CCC(=O)[*:2])[*:1]; NMeL = CN[C@@H](CC(C)C)C(=O)O; NMeV = CN[C@H](C(=O)O)C(C)C; d(β3hA) = C[C@@H](N)CC(=O)O; NMeAbu = CC[C@H](NC)C(=O)O; NMeA = CN[C@@H](C)C(=O)O; βAla = NCCC(=O)O; Sar = CNCC(=O)O; tBu = CC(C)(C)*

Assays:
[1] = Metabolic stability test: liver microsomal stability assay; type: in vitro ADME, mouse; settings: for microsomal CLint at 1 µM: male, pH 7.4, presence of NADPH, read-out: Mouse Hepatic Microsome CLh,int NADPH(+)
[2] = Membrane permeability test using Caco-2 cells with preincubation; type: in vitro ADME; settings: Caco-2
Caco-2 cells = assay: as above; type: in vitro ADME
[3] = mouse liver microsomes 0.5 mg protein/mL, compound 1 µM
[4] = mouse liver microsomes 0.5 mg protein/mL, compound 1 µM, absence of NADPH
[5] = preincubation 20 to 24 hours, Apical FaSSIF/HBSS pH 6.0, Basal HBSS 4% BSA pH 7.4, 180 minutes, read-out: Caco2 Papp
[6] = Caco-2 cells, preincubation 20 to 24 hours, apical FaSSIF/HBSS 1% DMSO pH 6.0, basal HBSS 4% BSA pH 7.4, basal sample at 180 minutes

Compound | microsomal CLint at 1 µM [1, 3] [µL/min/mg] | Mouse Hepatic Microsome CLh,int NADPH(-) [1, 4] [µL/min/mg Protein] | Papp A→B [2, 5] [×10⁻⁶ cm/s] | Caco2 Papp (10^-6 cm/sec) (Caco-2 cells; [6]) | Mouse Hepatic Microsome CLh,int NADPH(-) [1] [µL/min/mg Protein] | Papp A→B [2] [×10⁻⁶ cm/s] | Caco2 Papp (10^-6 cm/sec) (Caco-2 cells; Caco-2)
CC[C@H](C)[C@@H]1NC(=O)[C@H](CC(C)C)N(C)C(=O)[C@H](C)N(C)C(=O)[C@H](Cc2ccccc2)N(C)C(=O)[C@@H]2CCCN2C(=O)[C@H](CC(C)C)N(C)C(=O)[C@H](CCc2ccccc2)NC(=O)CCN(C)C(=O)C[C@@H](C)NC(=O)[C@H](CC(C)C)N(C)C(=O)[C@H]([C@@H](C)O)NC(=O)CCN(C)C(=O)[C@H](C(C)C)N(C)C1=O [pd138] (cyclo(I[NMeV][NMeβAla]T[NMeL][d(β3hA)][NMeβAla][hPhe][NMeL]P[NMeF][NMeA][NMeL])) | 39.3 | 11.1 | 0.23 | 0.23 10^-6 cm/sec | – | – | –
CC[C@H](C)[C@@H]1NC(=O)[C@H](CC(C)C)N(C)C(=O)C[C@@H](C)NC(=O)[C@H](C(C)C)N(C)C(=O)[C@H](COC(C)(C)C)NC(=O)[C@H](CC)N(C)C(=O)[C@H](Cc2ccccc2)N(C)C(=O)[C@H](CC(C)C)NC(=O)[C@@H]2CCCN2C(=O)[C@H]([C@@H](C)O)N(C)C(=O)[C@H](CC(C)C)N(C)C(=O)[C@H](CC)N(C)C(=O)[C@H](CC(C)C)N(C)C1=O [pd139] (cyclo(I[NMeL][NMeAbu][NMeL][NMeT]PL[NMeF][NMeAbu]S(tBu)[NMeV][d(β3hA)][NMeL])) | 32.3 | 28.2 | 1.24 | 1.24 10^-6 cm/sec | – | – | –
CC[C@H](C)[C@@H]1NC(=O)[C@H](CC(C)C)N(C)C(=O)CCCN(C)C(=O)C[C@@H](C)N(C)C(=O)[C@H](CC(C)C)NC(=O)[C@H](CC)N(C)C(=O)[C@H](C(C)C)N(C)C(=O)[C@H](C)N(C)C(=O)[C@H](CC(C)C)N(C)C(=O)[C@H](COC(C)(C)C)NC(=O)[C@H](Cc2ccccc2)N(C)C(=O)[C@H](Cc2ccccc2)N(C)C(=O)CN(C)C1=O [pd143] (cyclo(I[Sar][NMeF][NMeF]S(tBu)[NMeL][NMeA][NMeV][NMeAbu]L[NMedβ3hAla][NMeGABA][NMeL])) | 39.3 | 21.0 | 4.73 | 4.73 10^-6 cm/sec | – | – | –

The next lines start with the values.

microsomal CLint at 1 µM [1, 3] [µL/min/mg] | Mouse Hepatic Microsome CLh,int NADPH(-) [1, 4] [µL/min/mg Protein] | Papp A→B [2, 5] [×10⁻⁶ cm/s] | Caco2 Papp (10^-6 cm/sec) (Caco-2 cells; [6]) | Mouse Hepatic Microsome CLh,int NADPH(-) [1] [µL/min/mg Protein] | Papp A→B [2] [×10⁻⁶ cm/s] | Caco2 Papp (10^-6 cm/sec) (Caco-2 cells; Caco-2) | Compound
10.5 | 10.3 | 0.31 | 0.31 10^-6 cm/sec | – | – | – | CC[C@H]1C(=O)N(C)[C@@H](Cc2ccccc2)C(=O)N(C)[C@@H](CC(C)C)C(=O)N[C@@H](CC(C)C)C(=O)N(C)[C@@H](C(C)C)C(=O)N[C@H](C)CC(=O)N(C)CC(=O)N(C)[C@@H](C(C)C)C(=O)N(C)[C@@H](CC(C)C)C(=O)N(C)[C@@H](C)C(=O)N(C)[C@@H](CC(C)C)C(=O)N[C@@H]([C@@H](C)O)C(=O)N(C)CC(=O)N1C [pd140] (cyclo(L[NMeV][d(β3hA)][Sar][NMeV][NMeL][NMeA][NMeL]T[Sar][NMeAbu][NMeF][NMeL]))
– | – | – | – | 21.1 | 0.24 | 0.24 10^-6 cm/sec | CC[C@H](C)[C@@H]1NC(=O)[C@H](CC(C)C)N(C)C(=O)[C@H](CC(C)C)NC(=O)CCN(C)C(=O)C[C@@H](C)N(C)C(=O)[C@H](CC(C)C)N(C)C(=O)CNC(=O)[C@@H]2CCCN2C(=O)[C@H](CC(C)C)N(C)C(=O)CCNC(=O)[C@H]([C@@H](C)CC)N(C)C(=O)[C@H](CCc2ccccc2)NC(=O)[C@H](Cc2ccccc2)N(C)C1=O [pd141] (cyclo(G[NMeL][NMedβ3hAla][NMeβAla]L[NMeL]I[NMeF][hPhe][NMeI][βAla][NMeL]P))
31.7 | 33.9 | 0.71 | 0.71 10^-6 cm/sec | – | – | – | CC[C@H](C)[C@@H]1NC(=O)[C@H](CC(C)C)N(C)C(=O)[C@H](CC(C)C)NC(=O)CCN(C)C(=O)C[C@@H](C)N(C)C(=O)CN(C)C(=O)[C@H](CC(C)C)N(C)C(=O)[C@@H]2CCCN2C(=O)[C@H](CC(C)C)N(C)C(=O)[C@H](COC(C)(C)C)NC(=O)[C@H]([C@@H](C)CC)N(C)C(=O)[C@H](CCc2ccccc2)NC(=O)[C@H](Cc2ccccc2)N(C)C1=O [pd142] (cyclo(I[NMeF][hPhe][NMeI]S(tBu)[NMeL]P[NMeL][Sar][NMedβ3hAla][NMeβAla]L[NMeL]))
35.5 | 35.7 | 0.05 | 0.05 10^-6 cm/sec | – | – | – | CC[C@H](C)[C@@H]1NC(=O)[C@H](C)N(C)C(=O)[C@H]([C@@H](C)O)NC(=O)[C@H](CC(C)C)N(C)C(=O)[C@H](COC(C)(C)C)NC(=O)[C@H](Cc2ccccc2)N(C)C(=O)[C@H]([C@@H](C)CC)NC(=O)CNC(=O)[C@H](Cc2ccccc2)N(C)C(=O)[C@H](CC(C)C)N(C)C(=O)CCCN(C)C(=O)C[C@@H](C)N(C)C(=O)[C@H](CC(C)C)NC1=O [pd145] (cyclo(GI[NMeF]S(tBu)[NMeL]T[NMeA]IL[NMedβ3hAla][NMeGABA][NMeL][NMeF]))
